From patent US20260108483A1, “METHODS AND COMPOSITIONS FOR PREVENTING THE PROGRESSION OF DIABETIC RETINOPATHY AND RELATED CONDITIONS” (Opus Genetics, Inc., priority 2023, published 2026)
Counter-ions that a name gives are not always drawn.

Test: Dynamic vapor sorption (DVS) analysis
Assay type: physicochemical

maximum water adsorption (DVS) (at 82% RH): about 1.52%
water retained at the end of the desorption branch (DVS) (end of desorption): 0.19%
crystalline form of post-DVS sample (XRPD) versus pre-DVS sample (subsequent XRPD analysis after DVS): maintained the same crystalline form
Compound: CCCCCCCCC/C(=C\C1=C(C)C(=O)C(OC)=C(OC)C1=O)C(=O)O [Compound 1 calcium salt]
